This note sets out measurements from patent US9061009B2, “Mixed lineage kinases and metabolic disorders” (University of Massachusetts, priority 2007, dated 2015).

SMILES strings stand for the structures.

Assay [1] can be described thus: Development of insulin resistance in mice fed a high fat diet. It is filed as in vivo. To be noted: male mice, high fat diet 16 weeks; s.c. 0.5 or 2.5 mg/kg twice per day; vs control treatment. As for the experimental part:
The effects of the MLK inhibitor CEP-1347 on development of insulin resistance in mice is determined. Male mice are fed a high fat diet ad libitum (Diet F3282, Bio-Serv, Frenchtown, N.J.) or a standard diet for 16 weeks, with each group administered CEP-1347 subcutaneously (s.c.) at a dose of 0.5 or 2.5 mg/kg or vehicle control, twice per day. Body mass is recorded weekly, and blood samples are collected from the tail vain after an overnight fast after 6, 12, and 16 weeks on the diet. Blood glucose concentrations are measured with a DEX® glucometer (Bayer, Tarrytown, N.Y.), and plasma insulin is measured by ELISA kit for rat insulin (Crystal Chem, Downers Grove, Ill.). Glucose tolerance tests are performed by i.p. administration of glucose (1.8 g/kg) and measurement of blood glucose at t=15, 30, 60, 90, and 120 minutes in 16-week-old mice. Insulin tolerance tests are done similarly except with the injection of human insulin (1 unit per kg; Lilly Research Laboratories, Indianapolis). Untreated animals fed the high fat diet display hyperinsulinemia, hyperglycemia, decreased insulin sensitivity, and impaired glucose disposal.

Assay [2] in a line: Established insulin resistance in ob/ob mice. As to conditions: s.c. 0.5 or 2.5 mg/kg twice per day for two weeks, vs vehicle control. The format is in vivo. As to the method: The effects of the MLK inhibitor CEP-1347 to alleviate established insulin resistance in mice is determined. Ten-week old ob/ob mice (Jackson Laboratory, Bar Harbor, Me.) are obese and display hyperinsulinemia, hyperglycemia, decreased insulin sensitivity, and impaired glucose disposal. Such mice are administered CEP-1347 subcutaneously (s.c.) at a dose of 0.5 or 2.5 mg/kg or vehicle control, twice per day for two weeks. Blood glucose concentrations are measured with a DEX® glucometer (Bayer, Tarrytown, N.Y.), and plasma insulin is measured by ELISA kit for rat insulin (Crystal Chem, Downers Grove, Ill.). Following day 14 of the treatment, glucose tolerance tests are performed by i.p. administration of glucose (1.8 g/kg) and measurement of blood glucose at t=15, 30, 60, 90, and 120 minutes. Insulin tolerance tests are performed similarly except with the injection of human insulin (1 unit per kg; Lilly Research Laboratories, Indianapolis).

Another assay deals with MLK3. The assay can be described thus: MLK3 T-loop (Thr-277, Ser-281) phosphorylation immunoblot in MEF. It is filed as cell-based, mouse. To be noted: MEF pretreated with phorbol ester, then FFA. As for the experimental part: Wild-type, Mkk4^−/−, Mkk7^−/−, and Mkk4^−/− Mkk7^−/− MEF (Tournier et al., 2001, Genes Dev., 15:1419-1426) and wild-type and Mlk3^−/− MEF have been previously described (Brancho et al., 2005, Mol. Cell. Biol., 25:3670-3681). Wild-type and Pkcζ^−/− MEF have also been described (Leitges et al., 2001, Mol. Cell, 8:771-780). MEF and HEK293 cells (American Type Culture Collection) were cultured in Dulbecco's modified Eagle's medium (DMEM) supplemented with 10% fetal bovine serum (Invitrogen, Carlsbad, Calif.). HEK293 cells were transfected with Lipofectamine™ transfection reagent (Invitrogen, Carlsbad, Calif.). Sodium salts of fatty acids (Sigma-Aldrich, St. Louis, Mo.) were dissolved in PBS and mixed with free fatty acid (FFA)-free BSA (Roche). Stearic acid (Sigma-Aldrich, St. Louis, Mo.) was dissolved in ethanol and added to serum-free DMEM supplemented with 2% FFA-free BSA. […]
Protein extracts were prepared using lysis buffer [20 mM Tris™ buffer (pH 7.4), 1% Triton™ X-100 detergent, 10% glycerol, 137 mM NaCl, 2 mM EDTA, 25 mM β-glycerophosphate, 1 mM sodium orthovanadate, 1 mM phenylmethylsulfonyl fluoride, and 10 μg/mL of aprotinin and leupeptin]. […] JNK activity was measured in an in vitro kinase assay using [γ-^32P]ATP and cJun as substrates (Whitmarsh and Davis, 2001, Methods Enzymol., 332:319-336). […]
(In western blotting, separated proteins are transferred to a membrane and probed.)

Another assay relates to JNK. The assay can be described thus: FFA-stimulated JNK activation in MEF (in vitro kinase assay with cJun / immunoblot). It is filed as cell-based, mouse.
Assay [3] concerns diacylglycerol-responsive PKC isoforms (α, δ, and ε). The assay can be described thus: Down-regulation of PKC isoforms in MEF by phorbol ester. It is filed as cell-based, mouse. As to conditions: 1 μM, 24 hours. As for the experimental part:
FIG. 7C is a set of nine gels depicting expression of PKCα, PKCδ, PKCε, MLK3, phospho-MLK3 (MLK3-P), JNK, and Tubulin and in vitro kinase activity (KA) on cJun (cJun-P) of PKGζ^−/− MEF pretreated with 1 μM TPA for 24 hours and then treated with 0.5 mM palmitate for 16 hours.
To test the requirement of PKC for FFA-stimulated MLK3 and JNK activation, the effect of PKC down-regulation was examined. In initial studies, siRNA was used to down-regulate the PKC isoforms expressed in MEF (PKCα, PKCδ, PKCε, and PKCζ). Down-regulation of individual PKC isoforms caused no change in FFA-induced MLK3 or JNK activation. […] Efficient simultaneous down-regulation of multiple PKC isoforms using siRNA was not obtained. An alternative approach was therefore used to obtain MEF lacking multiple PKC isoforms. […] The effect of pan-PKC deficiency was therefore examined by treating Pkcζ^−/− MEF with TPA (FIG. 7C).

Procedure for JNK: MEF and HEK293 cells (American Type Culture Collection) were cultured in Dulbecco's modified Eagle's medium (DMEM) supplemented with 10% fetal bovine serum (Invitrogen, Carlsbad, Calif.). […] Sodium salts of fatty acids (Sigma-Aldrich, St. Louis, Mo.) were dissolved in PBS and mixed with free fatty acid (FFA)-free BSA (Roche). Stearic acid (Sigma-Aldrich, St. Louis, Mo.) was dissolved in ethanol and added to serum-free DMEM supplemented with 2% FFA-free BSA. After 1 hour incubation in serum-free DMEM, cells were treated with 0.5 mM fatty acid/0.5% BSA for 1-16 hours at 37° C.
Protein extracts were prepared using lysis buffer [20 mM Tris™ buffer (pH 7.4), 1% Triton™ X-100 detergent, 10% glycerol, 137 mM NaCl, 2 mM EDTA, 25 mM β-glycerophosphate, 1 mM sodium orthovanadate, 1 mM phenylmethylsulfonyl fluoride, and 10 μg/mL of aprotinin and leupeptin]. Extracts (50 μg of protein) were examined by immunoblot analysis with antibodies obtained from Cell Signaling (MLK3, phosphoThr277, Ser281-MLK3, ERK, phospho-ERK, p38, phospho-p38, AKT, phosphoSer473-AKT, PKCα, PKCδ, phospho-T-loop-PKC, and phospho-JNK), Transduction Labs (PKCε), PharMingen (JNK), Sigma (α-Tubulin), and Upstate Biotechnology (IRS1, phosphoSer307-IRS1 and phospho-MKK7). JNK activity was measured in an in vitro kinase assay using [γ-^32P]ATP and cJun as substrates (Whitmarsh and Davis, 2001, Methods Enzymol., 332:319-336). […]

Consider `CCSCc1ccc2c(c1)c1c3c(c4c5cc(CSCC)ccc5n5c4c1n2[C@H]1C[C@](O)(C(=O)OC)[C@]5(C)O1)CNC3=O` [CEP-1347], for which the “hyperinsulinemia, hyperglycemia, decreased insulin sensitivity, impaired glucose disposal” value in assay [1] is reported as “decreases these symptoms”. In addition, in assay [2], the hyperinsulinemia and hyperglycemia entry is “decreases hyperinsulinemia and hyperglycemia”; the “insulin and glucose tolerance” value is “at least partially restores insulin and glucose tolerance”.
In the case of `CCCCCCCCCCCCCC(=O)O[C@@H]1[C@@H](C)[C@@]2(O)[C@@H](C=C(CO)C[C@]3(O)C(=O)C(C)=C[C@@H]23)[C@@H]2C(C)(C)[C@]12OC(C)=O` [TPA, Phorbol-12-Myristate-13-Acetate], in the assay on MLK3, the “effect on FFA-induced MLK3 activation” value is reported as “did not affect”. For the same compound, the “effect on FFA-induced JNK activation” value in the assay with JNK (MEF pretreated with phorbol ester, then FFA) was “did not affect”. For the same compound, the “down-regulation of PKC isoforms” value in assay [3] is “caused down-regulation of diacylglycerol-responsive PKC isoforms (α, δ, and ε)”.
With `CCCCCCCCCCCCCCCCCC(=O)O` [stearate, stearic acid], the JNK activation result with JNK (MEF, 0.5 mM FFA, 16 hours) was “resulted in JNK activation”.
